Source: patent US20260265203A1, “CRYSTAL FORMS OF NITROGEN-CONTAINING SPIRO COMPOUND, PREPARATION METHOD THEREFOR AND USE THEREOF” (WUHAN CREATERNA SCIENCE AND TECHNOLOGY CO., LTD., priority 2023, published 2026)
In brackets after ≈: the same amount, converted by molar mass. Where two headings read alike, the source gives them in different places.

Tests used:
alternative pathway = assay: Rabbit erythrocyte hemolysis assay (alternative pathway inhibition); type: cell-based, human; conditions: rabbit erythrocytes, NHP or NHS (matrix of the value not stated)
Excerpt: Normal Human Serum (NHS) (collected from healthy individuals), Normal Human Plasma (NHP) (Shanghai Yuduo), 96-well enzyme-linked immunosorbent assay (ELISA) plates (Jet Biofil), Japanese big-ear white rabbits (Wuhan WQJX Biotechnology), Alsever's solution (Procell), centrifuge (Thermo, PICO17), constant temperature shaker (Shanghai Fuma), decolorization shaker (Beijing Liuyi Biotechnology), cell counter (Invitrogen, Counter Countess II). GVB°, EGTA, MgCl2, NaOH, microplate reader, microplate thermostatic shaker, pipettes, etc., were the same as Experiment 1.
48% NHP: 100% NHP was diluted to a concentration of 48% with buffer.
26.4% NPS: 100% NHS was diluted to a concentration of 26.4% with buffer. […]
In a 96-well microplate, for the experimental group 50 μL of 48% NHP or 26.4% NHS and 50 μL of compound solution were added; for the positive control group 50 μL of 48% NHP or 26.4% NHS and 50 μL of buffer containing 0.2% DMSO were added; for the blank control group 50 μL of 48% inactivated NHP or 26.4% inactivated NHS and 50 μL of buffer containing 0.2% DMSO were added; for the H2O group 100 μL of double-distilled water was added. […] The plate was centrifuged at 2000 g (3380 rpm) for 5 minutes, and 100 μL of supernatant was transferred to a new 96-well microplate, after which absorbance was measured at 415 nm. […]

[1] = Heating experiment of crystal form II; type: physicochemical
Excerpt: The resulting solids were subsequently characterized by XRPD, TGA, DSC, and ^1H NMR testings.

[2] = Solid-state stability experiment under open conditions (HPLC purity, XRPD); type: physicochemical
Description: (§1) The analysis and detection of samples were conducted using Shimadzu instruments. Both stability and solubility experiments were measured using the following methods.
The purity was determined by HPLC.

[3] = Solubility experiments in biosolvents and water; type: physicochemical
Description: as §1
The samples were fully stirred in SGF, FaSSIF, FeSSIF, and water for 0.5 hours, 2 hours, and 24 hours before being withdrawn. Their solubility was determined using HPLC, and the solid form in the suspensions was analyzed by XRPD for its crystal form.

[4] = Determination of stability in biosolvents (HPLC purity); type: physicochemical
Description: as §1
After thorough stirring for 0.5 hours, 2 hours, and 24 hours, the mixed solutions were diluted to 10 mL, and their purity was determined using HPLC. […] Main impurities are indicated by the boxes in FIGS. 26 to 29.

[5] = Hygroscopicity experiment (DVS); type: physicochemical
Description: The sample was analyzed using Intrinsic DVS ([…] UK). The test sample, approximately 20~30 mg, was placed into the sample basket and suspended in the measurement chamber. The temperature in the test chamber was maintained at 25±1° C., while the relative humidity is increased from 0% to 90% and then decreased back to 0% at a rate of 10% per hour. Mass data was recorded every 20 seconds. Each gradient pause lasts 60 minutes.
No change in crystal form was observed before and after the DVS measurement.

[6] = Stability of crystal form I in DMSO under high-temperature conditions (LCMS purity); type: physicochemical
Description: The LCMS curve was acquired using a Shimadzu instrument.
The suspension was stirred at 50° C. for 24 hours and 48 hours, respectively. The solid and filtrate were then analyzed by LCMS.

[7] = Water activity experiment (crystal form by XRPD); type: physicochemical
Description: Organic solvent and water were mixed at molar ratios of 0.001:0.999, 0.2:0.8, 0.5:0.5, 0.8:0.2, and 0.999:0.001. […] The mixtures were stirred at 25° C. and 50° C. for 30 minutes, respectively, followed by filtration, and the filtrate was collected. […] The results were analyzed after stirring for 5 days and 11 days, respectively.

[8] = Wet grinding crystal transformation experiment; type: physicochemical; conditions: manual grinding with water or ethanol for 10 minutes
Description: 0.04 mL of water or ethanol was added, and manual grinding was performed for 2 min, 5 min, and 10 min, respectively. After each grinding period, XRPD was measured. If the solvent completely evaporates during the grinding process, an additional 0.04 mL of water or ethanol should be added to the mortar each time.

[9] = Tablet compression experiment; type: physicochemical; conditions: compressed at 40 MPa
[10] = simulated gastric fluid, thermodynamic from solid, SGF
[11] = thermodynamic from solid, FaSSIF
[12] = thermodynamic from solid, FeSSIF
[13] = thermodynamic from solid, Water
[14] = 25° C., DMSO-H2O, aw 0.0003-0.999
[15] = 50° C., DMSO-H2O, aw 0.0003-0.999

Compound: NCc1cccc(-c2cc(COc3ccccc3CC(=O)O)cc(N3CCC4(CC3)CC4)c2)c1 [Compound of formula A, 2-(2-((3′-(aminomethyl)-5-(6-azaspiro[2.5]octan-6-yl)-[1,1′-biphenyl]-3-yl)methoxy)phenyl)acetic Acid]
- IC50 (alternative pathway): 41 nM

Compound: NCc1cccc(-c2cc(COc3ccccc3CC(=O)O)cc(N3CCC4(CC3)CC4)c2)c1 [crystal form II]
- Crystal form (XRPD) after heating ([1]; heated to 140° C.): no change in the crystal form
- Crystal form (XRPD) after heating ([1]; heated to 200° C.): crystal form I

Compound: NCc1cccc(-c2cc(COc3ccccc3CC(=O)O)cc(N3CCC4(CC3)CC4)c2)c1 [crystal form I]
- HPLC main peak purity ([2]; 0 days (initial)): 99.33%
- HPLC main peak purity ([2]; open, 25° C./60% RH, 3 days): 99.34%
- HPLC main peak purity ([2]; open, 25° C./60% RH, 7 days): 98.95%
- HPLC main peak purity ([2]; open, 25° C./60% RH, 14 days): 99.43%
- HPLC main peak purity ([2]; open, 25° C./90%(±5%) RH, 3 days): 99.18%
- HPLC main peak purity ([2]; open, 25° C./90%(±5%) RH, 7 days): 98.96%
- HPLC main peak purity ([2]; open, 25° C./90%(±5%) RH, 14 days): 99.52%
- HPLC main peak purity ([2]; open, 40° C./75% RH, 3 days): 99.30%
- HPLC main peak purity ([2]; open, 40° C./75% RH, 7 days): 99.00%
- HPLC main peak purity ([2]; open, 40° C./75% RH, 14 days): 99.48%
- Crystal form (XRPD) after storage ([2]; open, 60° C., 25° C./60% RH, 40° C./75% RH, 25° C./90(±5)% RH, 14 days): remained unchanged
- HPLC main peak purity ([2]; open, 60° C., 3 days): 99.36%
- HPLC main peak purity ([2]; open, 60° C., 7 days): 98.92%
- HPLC main peak purity ([2]; open, 60° C., 14 days): 99.44%
- solubility ([3]; Water, 0.5 h): LOQ
- Crystal form (XRPD) of suspended solid ([3]; after stirring for 24 hours in FaSSIF, FeSSIF, and water): remained unchanged
- solubility at 0.5 h ([3]; simulated gastric fluid, thermodynamic from solid, SGF, 0.5 h): > 5000 µg/mL
- solubility at 2 h [3, 10]: > 5000 µg/mL
- solubility at 24 h [3, 10]: > 5000 µg/mL
- solubility ([3]; simulated gastric fluid, thermodynamic from solid, SGF, read-out: solubility in SGF): > 5000 µg/mL
- solubility at 0.5 h ([3]; thermodynamic from solid, FaSSIF, 0.5 h): 54 µg/mL (≈ 118 µM)
- solubility at 2 h [3, 11]: 66 µg/mL (≈ 145 µM)
- solubility at 24 h [3, 11]: 75 µg/mL (≈ 164 µM)
- solubility ([3]; thermodynamic from solid, FaSSIF, FeSSIF, and water, read-out: solubility in FaSSIF, FeSSIF, and water): < 730 µg/mL
- solubility at 0.5 h ([3]; thermodynamic from solid, FeSSIF, 0.5 h): 630 µg/mL (≈ 1380 µM)
- solubility at 2 h [3, 12]: 700 µg/mL (≈ 1530 µM)
- solubility at 24 h [3, 12]: 730 µg/mL (≈ 1600 µM)
- solubility at 2 h [3, 13]: 0.2 µg/mL (≈ 0.438 µM)
- solubility at 24 h [3, 13]: 0.58 µg/mL (≈ 1.27 µM)
- HPLC main peak purity ([4]; 0 h): 99.33%
- HPLC main peak purity ([4]; FaSSIF, 0.5 h): 98.97%
- HPLC main peak purity ([4]; FaSSIF, 2 h): 98.91%
- HPLC main peak purity ([4]; FaSSIF, 24 h): 98.86%
- HPLC main peak purity ([4]; FeSSIF, 0.5 h): 99.50%
- HPLC main peak purity ([4]; FeSSIF, 2 h): 99.34%
- HPLC main peak purity ([4]; FeSSIF, 24 h): 98.04%
- HPLC main peak purity ([4]; FeSSIF, starting value of the decline as stated in the text): 99.56%
- HPLC main peak purity ([4]; SGF, 0.5 h): 99.13%
- HPLC main peak purity ([4]; SGF, 2 h): 99.10%
- HPLC main peak purity ([4]; SGF, 24 h): 99.08%
- HPLC main peak purity ([4]; Water, 0.5 h): 99.06%
- HPLC main peak purity ([4]; Water, 2 h): 98.79%
- HPLC main peak purity ([4]; Water, 24 h): 98.77. %
- Crystal form (XRPD) before and after the DVS measurement [5]: No change
- weight gain (DVS) ([5]; 0-80% RH, 25° C.): 0.55%
- hygroscopicity ([5]; DVS): slight hygroscopicity
- Purity by LCMS (254 nm) ([6]; crystal form I before stirring): 99.06%
- Purity by LCMS (254 nm) ([6]; stirred in DMSO at 50° C. for 24 hours, filtrate): 98.71%
- Purity by LCMS (254 nm) ([6]; stirred in DMSO at 50° C. for 24 hours, solid): 99.48%
- Purity by LCMS (254 nm) ([6]; stirred in DMSO at 50° C. for 48 hours, filtrate): 97.14%
- Purity by LCMS (254 nm) ([6]; stirred in DMSO at 50° C. for 48 hours, solid): 98.92%
- Result (5 days): solid form ([7]; 25° C., ACN-H2O, aw 0.90-1.00): Crystal form I
- Result (11 days): solid form ([7]; 25° C., ACN-H2O, aw 0.90-1.00): Crystal
- Result (5 days): solid form [7, 14]: Crystal form I
- Result (11 days): solid form [7, 14]: Crystal
- Result (5 days): solid form ([7]; 25° C., IPA-H2O, aw 0.003-0.99): Crystal form I
- Result (11 days): solid form ([7]; 25° C., IPA-H2O, aw 0.003-0.99): Crystal
- Result (5 days): solid form ([7]; 50° C., ACN-H2O, aw 0.01-1.00): Crystal form I
- Result (11 days): solid form ([7]; 50° C., ACN-H2O, aw 0.01-1.00): Crystal
- Result (5 days): solid form [7, 15]: Crystal form I
- Result (11 days): solid form [7, 15]: Crystal
- Result (5 days): solid form ([7]; 50° C., IPA-H2O, aw 0.003-0.99): Crystal form I
- Result (11 days): solid form ([7]; 50° C., IPA-H2O, aw 0.003-0.99): Crystal
- Crystal form (XRPD) after wet grinding [8]: remained unchanged
- Crystal form (XRPD) after tablet compression [9]: remained unchanged
